From ChEMBL document CHEMBL3885881, “DrugMatrix”

Organism: Rattus norvegicus
Assay: DrugMatrix - Regimen: Daily Repeat
Format: toxicity, organism-based, Sprague-Dawley
Design: regimen Daily Repeat, gender Male, age 6-8 weeks
Settings: in vivo, po, route oral GAVAGE, vehicle .5 % CMC; for ABSOLUTE BASOPHIL / ABSOLUTE EOSINOPHIL / ABSOLUTE LYMPHOCYTE / ABSOLUTE MONOCYTE / ABSOLUTE SEGMENTED NEUTROPHIL / BASOPHIL / EOSINOPHIL / ERYTHROCYTE COUNT / HEMATOCRIT / HEMOGLOBIN / LEUKOCYTE COUNT / LYMPHOCYTE / MEAN CORPUSCULAR HEMOGLOBIN / MEAN CORPUSCULAR HEMOGLOBIN CONCENTRATION / MEAN CORPUSCULAR VOLUME / MONOCYTE / NEUTROPHIL / NUCLEATED RED BLOOD CELLS / PLATELET COUNT: tissue Blood; for ALANINE AMINOTRANSFERASE / ALBUMIN / ALKALINE PHOSPHATASE / ASPARTATE AMINOTRANSFERASE / BLOOD UREA NITROGEN / CARBON DIOXIDE / CHLORIDE / CHOLESTEROL / CREATINE PHOSPHOKINASE / CREATININE / GLUCOSE / LACTATE DEHYDROGENASE / LIPASE / PHOSPHORUS / POTASSIUM / SODIUM / TOTAL BILIRUBIN / TOTAL PROTEIN / URIC ACID: tissue Plasma
[1] = 0 mg/kg, 72 h, dose level Control, time 3 day
[2] = 0 mg/kg, 120 h, dose level Control, time 5 day
[3] = 2000 mg/kg, 72 h, dose level High, time 3 day

## O=C1Nc2ccc(Cl)cc2C(c2ccccc2Cl)=NC1O (centres undefined) [LORAZEPAM]
[1]
  ABSOLUTE BASOPHIL: 0 CELLS/uL
  ABSOLUTE EOSINOPHIL: 171.33 CELLS/uL
  ABSOLUTE LYMPHOCYTE: 13776.5 CELLS/uL
  ABSOLUTE MONOCYTE: 180.83 CELLS/uL
  ABSOLUTE SEGMENTED NEUTROPHIL: 1121.33 CELLS/uL
  BASOPHIL: 0%
  EOSINOPHIL: 1%
  ERYTHROCYTE COUNT: 5.56 x10E6/uL
  HEMATOCRIT: 34.75%
  HEMOGLOBIN: 13.68 G/DL
  LEUKOCYTE COUNT: 15.25 x10E3/uL
  LYMPHOCYTE: 90.17%
  MEAN CORPUSCULAR HEMOGLOBIN: 24.6 pg
  MEAN CORPUSCULAR HEMOGLOBIN CONCENTRATION: 39.4 G/DL
  MEAN CORPUSCULAR VOLUME: 62.48 fL
  MONOCYTE: 1.17%
  NEUTROPHIL: 7.67%
  NUCLEATED RED BLOOD CELLS: 0 /100WBC
  PLATELET COUNT: 1342 x10E3/uL
  ALANINE AMINOTRANSFERASE: 49.67 u/L
  ALBUMIN: 4.15 G/DL
  ALKALINE PHOSPHATASE: 346.83 u/L
  ASPARTATE AMINOTRANSFERASE: 108.17 u/L
  BLOOD UREA NITROGEN: 17.33 mg/dL
  CARBON DIOXIDE: 25 mmol/L
  CHLORIDE: 100.83 MEQ/L
  CHOLESTEROL: 66.83 mg/dL
  CREATINE PHOSPHOKINASE: 788 u/L
  CREATININE: 0.18 mg/dL
  GLUCOSE: 151.67 mg/dL
  LACTATE DEHYDROGENASE: 982.5 u/L
  LIPASE: 10.33 u/L
  PHOSPHORUS: 11.23 mg/dL
  POTASSIUM: 6.37 MEQ/L
  SODIUM: 141.02 MEQ/L
  TOTAL BILIRUBIN: 0.18 mg/dL
  TOTAL PROTEIN: 5.9 G/DL
  URIC ACID: 1.8 mg/dL
[2]
  ABSOLUTE BASOPHIL: 0 CELLS/uL
  ABSOLUTE EOSINOPHIL: 69 CELLS/uL
  ABSOLUTE LYMPHOCYTE: 13632.83 CELLS/uL
  ABSOLUTE MONOCYTE: 139.83 CELLS/uL
  ABSOLUTE SEGMENTED NEUTROPHIL: 1225 CELLS/uL
  BASOPHIL: 0%
  EOSINOPHIL: 0.33%
  ERYTHROCYTE COUNT: 5.52 x10E6/uL
  HEMATOCRIT: 33.98%
  HEMOGLOBIN: 13.22 G/DL
  LEUKOCYTE COUNT: 15.07 x10E3/uL
  LYMPHOCYTE: 90.83%
  MEAN CORPUSCULAR HEMOGLOBIN: 23.95 pg
  MEAN CORPUSCULAR HEMOGLOBIN CONCENTRATION: 38.9 G/DL
  MEAN CORPUSCULAR VOLUME: 61.53 fL
  MONOCYTE: 0.83%
  NEUTROPHIL: 8%
  NUCLEATED RED BLOOD CELLS: 0 /100WBC
  PLATELET COUNT: 1196 x10E3/uL
  ALANINE AMINOTRANSFERASE: 49.17 u/L
  ALBUMIN: 4.2 G/DL
  ALKALINE PHOSPHATASE: 352.33 u/L
  ASPARTATE AMINOTRANSFERASE: 89.67 u/L
  BLOOD UREA NITROGEN: 18 mg/dL
  CARBON DIOXIDE: 27.67 mmol/L
  CHLORIDE: 101 MEQ/L
  CHOLESTEROL: 72.83 mg/dL
  CREATINE PHOSPHOKINASE: 417.5 u/L
  CREATININE: 0.18 mg/dL
  GLUCOSE: 150.5 mg/dL
  LACTATE DEHYDROGENASE: 517.33 u/L
  LIPASE: 9 u/L
  PHOSPHORUS: 11.87 mg/dL
  POTASSIUM: 6.57 MEQ/L
  SODIUM: 143.62 MEQ/L
  TOTAL BILIRUBIN: 0.2 mg/dL
  TOTAL PROTEIN: 6.08 G/DL
  URIC ACID: 1.45 mg/dL
[3]
  ABSOLUTE BASOPHIL: 0 CELLS/uL
  ABSOLUTE EOSINOPHIL: 93.33 CELLS/uL
  ABSOLUTE LYMPHOCYTE: 11320 CELLS/uL
  ABSOLUTE MONOCYTE: 259.33 CELLS/uL
  ABSOLUTE SEGMENTED NEUTROPHIL: 1294 CELLS/uL
  BASOPHIL: 0%
  EOSINOPHIL: 0.67%
  ERYTHROCYTE COUNT: 6.11 x10E6/uL
  HEMATOCRIT: 38.6%
  HEMOGLOBIN: 15.07 G/DL
  LEUKOCYTE COUNT: 12.97 x10E3/uL
  LYMPHOCYTE: 87.33%
  MEAN CORPUSCULAR HEMOGLOBIN: 24.63 pg
  MEAN CORPUSCULAR HEMOGLOBIN CONCENTRATION: 39.03 G/DL
  MEAN CORPUSCULAR VOLUME: 63.1 fL
  MONOCYTE: 2%
  NEUTROPHIL: 10%
  NUCLEATED RED BLOOD CELLS: 0 /100WBC
  PLATELET COUNT: 1214.33 x10E3/uL
  ALANINE AMINOTRANSFERASE: 72.67 u/L
  ALBUMIN: 4.4 G/DL
  ALKALINE PHOSPHATASE: 338 u/L
  ASPARTATE AMINOTRANSFERASE: 105.33 u/L
  BLOOD UREA NITROGEN: 24 mg/dL
  CARBON DIOXIDE: 21.33 mmol/L
  CHLORIDE: 99.33 MEQ/L
  CHOLESTEROL: 119.67 mg/dL
  CREATINE PHOSPHOKINASE: 966.67 u/L
  CREATININE: 0.22 mg/dL
  GLUCOSE: 161.67 mg/dL
  LACTATE DEHYDROGENASE: 346.33 u/L
  LIPASE: 16.67 u/L
  PHOSPHORUS: 10.23 mg/dL
  POTASSIUM: 5.79 MEQ/L
  SODIUM: 140.87 MEQ/L
  TOTAL BILIRUBIN: 0.27 mg/dL
  TOTAL PROTEIN: 6.23 G/DL
  URIC ACID: 1.5 mg/dL
